# No end group written: not given here.
# Columns and labels:
# Assay in all cases: MIC90 growth inhibition
# Format in all cases: cell-based
# Settings in all cases: RPMI 1640 one-fourth strength
# Absidia corymbifera = test system: Absidia corymbifera
# Method: (§1) The minimum inhibitory concentration (MIC) value is defined as the lowest sample concentration that inhibited growth. In the Examples, the MIC90 value is presented, which MIC90 values are determined according to established methods known to the person with the skills in the relevant art. Experiments; 1×10E5 CFU of various strains/ml were incubated for 24-48 h at 37° C. in 4× diluted medium of RPMI 1640 with the indicated concentrations of antimicrobial peptide hLF(1-11) [SEQ ID NO: 3]. As controls various strains cells were incubated for 24-48 h at 37° C. with no agent (antimicrobial peptide), and subsequently, growth of the microbial organism (e.g. yeast, bacterium) was monitored by using spectrophotometry with a spectrophotometer at 620 nm. […] ND=Not done. Representative single assay data are listed rather than a range, for clarity reasons and for ease of comparison of peptide efficacy. The MIC was calculated as the lowest antibiotic (antimicrobial peptide) concentration at which growth of the assessed yeast or bacterium (microbe) was inhibited (inhibitory concentration IC90).
# Altematria spp. = test system: Altematria spp.
# Method: as §1
# Aspergillus niger = test system: Aspergillus niger
# Method: as §1
# Aspergillus spp = test system: Aspergillus spp
# Method: as §1
# Aspergillus tamarii = test system: Aspergillus tamarii
# Method: as §1
# Aspergillus terreus = test system: Aspergillus terreus
# Method: as §1
# Aspergillus versicolor = test system: Aspergillus versicolor
# Method: as §1
# Botrytis cinerea = test system: Botrytis cinerea
# Method: as §1
# C. neoformans = test system: C. neoformans
# Method: as §1
# Cryptococcus albidus = test system: Cryptococcus albidus
# Method: as §1
# Cryptococcus gattii = test system: Cryptococcus gattii
# Method: as §1
# [1] = test system: Cryptococcus uniguttulatus
# Method: as §1
# Dekkera bruxellensis = test system: Dekkera bruxellensis
# Method: as §1
# Enterococcus faecalis = test system: Enterococcus faecalis
# Method: as §1
# Escherichia coli = test system: Escherichia coli
# Method: as §1
# Exophiala dermatitidis = test system: Exophiala dermatitidis
# Method: as §1
# Fusarium moniliforme = test system: Fusarium moniliforme
# Method: as §1
# Fusarium solani = test system: Fusarium solani
# Method: as §1
# [2] = test system: Malassezia furfur CBS 14141
# Method: as §1
# [3] = test system: Malassezia furfur CBS 7019
# Method: as §1
# [4] = test system: Malassezia furfur CBS-4172
# Method: as §1
# [5] = test system: Malassezia furfur CBS-9372
# Method: as §1
# [6] = test system: Malassezia pachydermatis CBS 1883
# Method: as §1
# [7] = test system: Malassezia pachydermatis CBS-1879
# Method: as §1
# [8] = test system: Malassezia restricta CBS 7877
# Method: as §1
# Microsporum gypseum = test system: Microsporum gypseum
# Method: as §1
# Mycobacterium avium = test system: Mycobacterium avium
# Method: as §1
# Penicillium digitatum = test system: Penicillium digitatum
# Method: as §1
# Penicillium pinophilum = test system: Penicillium pinophilum
# Method: as §1
# [9] = test system: Penicillium spp. such as aff. Carbonarius
# Method: as §1
# Penicillium spp = test system: Penicillium spp
# Method: as §1
# Penicillium vermiculatum = test system: Penicillium vermiculatum
# Method: as §1
# Phialophora verrucosa = test system: Phialophora verrucosa
# Method: as §1
# Proteus spp = test system: Proteus spp
# Method: as §1
# Rhizopus spp = test system: Rhizopus spp
# Method: as §1
# [10] = test system: Saccharomyces cerevisiae spp
# Method: as §1
# [11] = test system: Staphylococcus aureus 29213
# Method: as §1
# Streptococcus caseii = test system: Streptococcus caseii
# Method: as §1
# Streptococcus mitis = test system: Streptococcus mitis
# Method: as §1
# [12] = test system: Streptocococcus mitis 032
# Method: as §1
# Torula spp = test system: Torula spp
# Method: as §1
# Trichophyton rubrum = test system: Trichophyton rubrum
# Method: as §1
# Trichosporon beigelii = test system: Trichosporon beigelii
# Method: as §1
# Trichosporon cutaneum = test system: Trichosporon cutaneum
# Method: as §1
# [13] = test system: Zygosaccharomyces bisprous
# Method: as §1
sequence,measurement,setting,value
"GRRRRSVQWCA [hLF1-11, Gly Arg Arg Arg Arg Ser Val Gln Trp Cys Ala]",Inhibitory concentration MIC (MIC90),Absidia corymbifera,MIC = 40 μg/ml
same,Inhibitory concentration MIC (MIC90),Altematria spp.,MIC = 16 μM
same,Inhibitory concentration MIC (MIC90),Aspergillus niger,MIC = 50 μg/mL
same,Inhibitory concentration MIC (MIC90),Aspergillus spp,MIC = 2.5-12.5 μg/ml
same,Inhibitory concentration MIC (MIC90),Aspergillus tamarii,MIC = 2.5-12.5 μg/ml
same,Inhibitory concentration MIC (MIC90),Aspergillus terreus,MIC = 2.5-12.5 μg/ml
same,Inhibitory concentration MIC (MIC90),Aspergillus versicolor,MIC = 10 μg/ml
same,Inhibitory concentration MIC (MIC90),Botrytis cinerea,MIC = 16 μM
same,Inhibitory concentration MMC,C. neoformans,MMC = 50 μg/ml
same,Inhibitory concentration MIC (MIC90),Cryptococcus albidus,MIC = 25 μg/ml
same,Inhibitory concentration MIC (MIC90),Cryptococcus gattii,MIC = 64 μg/mL
same,Inhibitory concentration MIC (MIC90),[1],MIC = 6 μg/ml
same,Inhibitory concentration MIC (MIC90),Dekkera bruxellensis,MIC = 3.75-20 μM
same,Inhibitory concentration MIC (MIC90),Enterococcus faecalis,MIC = 6.3 μg/ml
same,Inhibitory concentration MIC (MIC90),Escherichia coli,MIC = 6.3 μg/ml
same,Inhibitory concentration MIC (MIC90),Exophiala dermatitidis,MIC = 2 μg/ml
same,Inhibitory concentration MIC (MIC90),Fusarium moniliforme,MIC = 2.5-5 μg/ml
same,Inhibitory concentration MIC (MIC90),Fusarium solani,MIC = 8-16 μM
same,Inhibitory concentration MIC (MIC90),[2],MIC = 12.5-50 μg/mL
same,Inhibitory concentration MIC (MIC90),[3],MIC = 12.5-50 μg/mL
same,Inhibitory concentration MIC (MIC90),[4],MIC = 50 μg/ml
same,Inhibitory concentration MIC (MIC90),[5],MIC = 50 μg/ml
same,Inhibitory concentration MIC (MIC90),[6],MIC = 25-50 μg/mL
same,Inhibitory concentration MIC (MIC90),[7],MIC = 50 μg/ml
same,Inhibitory concentration MIC (MIC90),[8],MIC = 50 μg/mL
same,Inhibitory concentration MIC (MIC90),Microsporum gypseum,MIC = 20-40 μg/ml
same,Inhibitory concentration MIC (MIC90),Mycobacterium avium,MIC = 50 μg/ml
same,Inhibitory concentration MIC (MIC90),Penicillium digitatum,MIC = 8 μM
same,Inhibitory concentration MIC (MIC90),Penicillium pinophilum,MIC = 45 μg/ml
same,Inhibitory concentration MIC (MIC90),[9],MIC = 45 μg/ml
same,Inhibitory concentration MIC (MIC90),Penicillium spp,MIC = 12.5-50 μg/ml
same,Inhibitory concentration MIC (MIC90),Penicillium vermiculatum,MIC = 45 μg/ml
same,Inhibitory concentration MIC (MIC90),Phialophora verrucosa,MIC = 5-10 μg/ml
same,Inhibitory concentration MIC (MIC90),Proteus spp,MIC = 6.3 μg/ml
same,Inhibitory concentration MIC (MIC90),Rhizopus spp,MIC = 25 μg/mL
same,Inhibitory concentration MIC (MIC90),[10],MIC = 0.63-50 μg/ml
same,Inhibitory concentration MIC (MIC90),[11],MIC = 3.1 μg/ml
same,Inhibitory concentration MIC (MIC90),Streptococcus caseii,MIC = 3.1 μg/ml
same,Inhibitory concentration MIC (MIC90),Streptococcus mitis,MIC = 3.1 μg/ml
same,Inhibitory concentration MIC (MIC90),[12],MIC = 6.3 μg/ml
same,Inhibitory concentration MIC (MIC90),Torula spp,MIC = 40 μg/ml
same,Inhibitory concentration MIC (MIC90),Trichophyton rubrum,MIC = 13-60 μg/ml
same,Inhibitory concentration MIC (MIC90),Trichosporon beigelii,MIC = 40 μg/ml
same,Inhibitory concentration MIC (MIC90),Trichosporon cutaneum,MIC = 1.25-18 μg/ml
same,Inhibitory concentration MIC (MIC90),[13],MIC = 40 μg/ml

# Source: patent US20250127863A1, “ANTIMICROBIAL PEPTIDE FOR ONYCHOMYCOSIS” (CBMR SCIENTIFIC NANOSCIENCE B.V., priority 2019, published 2025)
